Measurements: ChEMBL document CHEMBL3826938, “Synthesis and biological evaluation of Oblongifolin C derivatives as c-Met inhibitors” (Bioorg Med Chem, 2016)
Activity calls are given as the source filed them. The rule behind the calls is not given here.

How the values were obtained:
[1] = biological target: Hepatocyte growth factor receptor (Homo sapiens, UniProt P08581); assay: Inhibition of c-MET (unknown origin) by caliper mobility shift assay
HepG2 = assay: Cytotoxicity against human HepG2 cells assessed as growth inhibition after 72 hrs by MTT assay; conditions: HepG2, 72 h
[2] = Cytotoxicity against human MIAPaCa2 cells assessed as growth inhibition after 72 hrs by MTT assay; conditions: MIA PaCa-2, 72 h
[3] = Cytotoxicity against human HCC827 cells assessed as growth inhibition after 72 hrs by MTT assay; conditions: HCC827, 72 h
AGS = assay: Cytotoxicity against human AGS cells assessed as growth inhibition after 72 hrs by MTT assay
A549 = assay: Cytotoxicity against human A549 cells assessed as growth inhibition after 72 hrs by MTT assay; conditions: A549, 72 h
HeLa = assay: Cytotoxicity against human HeLa cells assessed as growth inhibition after 72 hrs by MTT assay
HT-29 = assay: Cytotoxicity against human HT-29 cells assessed as growth inhibition after 72 hrs by MTT assay; conditions: HT-29, 72 h
[4] = Solubility of compound in water; type: physicochemical; conditions: buffer
HCC827 = assay: Antimigratory activity against human HCC827 cells at 2.5 to 10 uM after 24 hrs by crystal violet staining based transwell chamber assay; type: functional, cell-based

Sequence of Hepatocyte growth factor receptor (P08581 whole entry): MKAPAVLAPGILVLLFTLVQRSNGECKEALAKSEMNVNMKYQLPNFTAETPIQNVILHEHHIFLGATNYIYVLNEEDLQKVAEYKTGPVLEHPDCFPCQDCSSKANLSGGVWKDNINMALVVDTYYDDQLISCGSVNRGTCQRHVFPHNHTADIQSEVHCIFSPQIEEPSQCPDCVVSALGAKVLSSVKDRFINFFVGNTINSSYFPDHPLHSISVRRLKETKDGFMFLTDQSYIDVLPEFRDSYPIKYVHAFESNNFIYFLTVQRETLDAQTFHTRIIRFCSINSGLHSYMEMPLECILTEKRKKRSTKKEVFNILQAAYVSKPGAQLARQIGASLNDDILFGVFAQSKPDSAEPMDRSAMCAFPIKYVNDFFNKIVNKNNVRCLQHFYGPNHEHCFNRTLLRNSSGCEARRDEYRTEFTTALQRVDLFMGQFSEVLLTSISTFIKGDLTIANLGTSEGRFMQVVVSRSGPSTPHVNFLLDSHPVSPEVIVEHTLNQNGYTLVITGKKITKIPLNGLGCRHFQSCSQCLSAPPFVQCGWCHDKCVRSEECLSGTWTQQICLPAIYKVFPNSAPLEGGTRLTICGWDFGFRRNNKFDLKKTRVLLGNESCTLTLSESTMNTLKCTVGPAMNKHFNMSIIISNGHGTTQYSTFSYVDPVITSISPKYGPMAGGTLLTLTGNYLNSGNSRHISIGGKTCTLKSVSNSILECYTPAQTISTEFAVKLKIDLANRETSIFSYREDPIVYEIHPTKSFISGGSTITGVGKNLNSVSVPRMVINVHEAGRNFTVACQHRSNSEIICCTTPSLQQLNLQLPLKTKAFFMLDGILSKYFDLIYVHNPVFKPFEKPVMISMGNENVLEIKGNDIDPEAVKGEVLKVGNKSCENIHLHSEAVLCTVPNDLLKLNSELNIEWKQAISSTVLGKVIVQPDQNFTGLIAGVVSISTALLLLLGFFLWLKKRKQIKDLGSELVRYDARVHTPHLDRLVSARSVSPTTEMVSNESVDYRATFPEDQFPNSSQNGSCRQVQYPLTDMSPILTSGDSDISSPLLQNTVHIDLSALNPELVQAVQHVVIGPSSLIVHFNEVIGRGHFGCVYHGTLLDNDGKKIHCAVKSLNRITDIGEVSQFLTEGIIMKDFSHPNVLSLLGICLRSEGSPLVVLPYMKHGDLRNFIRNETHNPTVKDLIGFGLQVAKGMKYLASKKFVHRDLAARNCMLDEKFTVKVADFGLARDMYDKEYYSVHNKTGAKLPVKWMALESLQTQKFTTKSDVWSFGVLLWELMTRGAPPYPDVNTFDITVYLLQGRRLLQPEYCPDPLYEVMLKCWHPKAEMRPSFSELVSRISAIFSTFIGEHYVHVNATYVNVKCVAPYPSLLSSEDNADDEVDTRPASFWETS

| IC50 [1] [µM] | solubility [4] | Compound | IC50 (HepG2) [µM] | IC50 [2] [µM] | IC50 [3] [µM] | IC50 (AGS) [µM] | IC50 (A549) [µM] | IC50 (HeLa) [µM] | IC50 (HT-29) [µM] | Activity (HCC827) |
| --- | --- | --- | --- | --- | --- | --- | --- | --- | --- | --- |
| > 20 | – | CC(C)=CCC/C(C)=C/C[C@@H]1C[C@]2(CC=C(C)C)C(=O)[C@@](CC=C(C)C)(C(=O)C(Cc3ccc(O)c(O)c3)=C2O)[C@@]1(C)CCC=C(C)C | > 20 | > 20 | > 20 | > 20 | > 20 | > 20 | > 20 | – |
| – | – | CC(C)=CCC/C(C)=C/C[C@@H]1C[C@]2(CC=C(C)C)C(=O)[C@@](CC=C(C)C)(C(=O)C(C(=O)c3ccc(O)c(OC(=O)CCCC[C@@H]4SCC5NC(=O)NC54)c3)=C2O)[C@@]1(C)CCC=C(C)C (some centres not stated) | 14.6 | 11.7 | 12.1 | 12.2 | 11.3 | 12.7 | 18.2 | – |
| – | – | CC(C)=CCC/C(C)=C/C[C@@H]1C[C@]2(CC=C(C)C)C(=O)[C@@](CC=C(C)C)(C(=O)C(OC(=O)c3ccc(O)c(O)c3)=C2O)[C@@]1(C)CCC=C(C)C | > 20 | > 20 | > 20 | 10.2 | 13.1 | 15.1 | 16.3 | – |
| – | soluble | CC(C)=CCC/C(C)=C/C[C@@H]1C[C@]2(CC=C(C)C)C(=O)[C@@](CC=C(C)C)(C(=O)C(C(=O)c3ccc(OCC(=O)O)c(OCC(=O)O)c3)=C2O)[C@@]1(C)CCC=C(C)C | > 20 | > 20 | > 20 | > 20 | > 20 | > 20 | > 20 | – |
| 7.77 | – | CC(C)=CCC/C(C)=C/C[C@@H]1C[C@]2(CC=C(C)C)C(=O)[C@@](CC=C(C)C)(C(=O)C(C(=O)c3ccc(O)c(O)c3)=C2O)[C@@]1(C)CCC=C(C)C [OBLONGIFOLIN C] | 13 | 4.46 | 9.2 | 4.58 | 4.29 | 5.83 | 6.74 | – |
| – | soluble | COC(=O)COc1ccc(C(=O)C2=C(O)[C@]3(CC=C(C)C)C[C@@H](C/C=C(\C)CCC=C(C)C)[C@](C)(CCC=C(C)C)[C@](CC=C(C)C)(C2=O)C3=O)cc1OCC(=O)O | > 20 | > 20 | > 20 | > 20 | > 20 | > 20 | > 20 | – |
| – | soluble | COC(=O)COc1cc(C(=O)C2=C(O)[C@]3(CC=C(C)C)C[C@@H](C/C=C(\C)CCC=C(C)C)[C@](C)(CCC=C(C)C)[C@](CC=C(C)C)(C2=O)C3=O)ccc1OCC(=O)O | > 20 | > 20 | > 20 | > 20 | > 20 | > 20 | > 20 | – |
| – | – | CC(=O)Oc1ccc(C(=O)C2=C(O)[C@]3(CC=C(C)C)C[C@@H](C/C=C(\C)CCC=C(C)C)[C@](C)(CCC=C(C)C)[C@](CC=C(C)C)(C2=O)C3=O)cc1OC(C)=O | > 20 | > 20 | > 20 | 15.7 | 16.6 | 13.3 | 12.2 | – |
| – | – | C[C@@H](Oc1cc(-c2cnn(C3CCNCC3)c2)cnc1N)c1c(Cl)ccc(F)c1Cl [CRIZOTINIB] | 3.7 | 7.16 | 7.25 | – | – | – | – | – |
| – | – | CC(C)=CCC/C(C)=C/C[C@@H]1C[C@@]2(CC=C(C)C)C(=O)C3=C(OC4C=C(O)C(=O)C=C4C3=O)[C@](CC=C(C)C)(C2=O)[C@@]1(C)CCC=C(C)C (some centres not stated) | 3.47 | 2.78 | 4.56 | 7.72 | 9.84 | 6.82 | 9.22 | Active |
| – | – | CC(C)=CCC/C(C)=C/C[C@@H]1C[C@]2(CC=C(C)C)C(=O)[C@@](CC=C(C)C)(C(=O)C3=C2OC2C=C(O)C(=O)C=C2C3=O)[C@@]1(C)CCC=C(C)C (some centres not stated) | 14.3 | 9.88 | > 20 | 7.84 | 13.1 | 10.3 | 16.9 | Active |
| – | – | CC(=O)Oc1cc(C(=O)C2=C(O)[C@]3(CC=C(C)C)C[C@@H](C/C=C(\C)CCC=C(C)C)[C@](C)(CCC=C(C)C)[C@](CC=C(C)C)(C2=O)C3=O)ccc1O | > 20 | 15.4 | > 20 | 8.09 | 7.66 | 8.97 | 10.2 | – |
